Target: recombinant human baculovirus-expressed cMET (Homo sapiens (Human), UniProt P08581)
Experiment: C-MET Kinase Assay (HTRF KinEASE)
Format: biochemical
Details: average of two or more determinations; read-out: c-MET IC50
Description: The cMET kinase assay was performed in 384-well Fluotrac™ 200 HiBase microplates using the HTRF KinEASE™ assay described above for AXL except that the assay volume was reduced to half. Enzyme concentration was 8 ng/mL of recombinant human baculovirus-expressed cMET while the substrate concentrations were 0.1 μM and 0.02 μM for the biotinylated peptide and ATP, respectively. Instead of the Multidrop Combi, the BioRAPTR® FRD microfluidic workstation (Beckman Coulter, Brea, Calif.) was utilized for reagent additions.
Inhibition curves for compounds were generated by plotting percent control activity versus log 10 of the concentration of compound. IC50 values were calculated by nonlinear regression using the sigmoidal dose-response (variable slope) equation in GraphPad Prism as follows: y=bottom+(top−bottom)/(1+10(log IC50−x)*Hill Slope) where y is the % kinase activity at a given concentration of compound, x is the logarithm of the concentration of compound, bottom is the % of control kinase activity at the highest compound concentration tested, and top is the % of control kinase activity at the lowest compound concentration examined. The values for bottom and top were fixed at 0 and 100, respectively.

Compound | IC50
COc1cc2nccc(Oc3ccc(NC(=O)c4cn(CCOCc5ccccc5)c(=O)n(-c5ccc(F)cc5)c4=O)cc3F)c2cc1OC [Example 10, 1-(2-Benzyloxyethyl)-3-(4-fluorophenyl)-2,4-dioxo-1,2,3,4-tetrahydropyrimidine-5-carboxylic acid [4-(6,7-dimethoxyquinolin-4-yloxy)-3-fluorophenyl]-amide] | 10 to 100 nM
COc1cc2nccc(Oc3ccc(NC(=O)c4cn(CCCOCc5ccccc5)c(=O)n(-c5ccc(F)cc5)c4=O)cc3F)c2cc1OC [Example 13, 1-(3-Benzyloxypropyl)-3-(4-fluorophenyl)-2,4-dioxo-1,2,3,4-tetrahydropyrimidine-5-carboxylic acid [4-(6,7-dimethoxyquinolin-4-yloxy)-3-fluorophenyl]-amide] | 10 to 100 nM
COc1cc2nccc(Oc3ccc(NC(=O)c4cn(CC=C(C)C)c(=O)n(-c5ccc(F)cc5)c4=O)cc3F)c2cc1OC [Example 15, 3-(4-Fluorophenyl)-1-(3-methyl-but-2-enyl)-2,4-dioxo-1,2,3,4-tetrahydropyrimidine-5-carboxylic acid [4-(6,7-dimethoxyquinolin-4-yloxy)-3-fluorophenyl]-amide] | 10 to 100 nM
COc1cc2nccc(Oc3ccc(NC(=O)c4cn(CCOCc5ccccc5)c(=O)n(-c5ccc(F)cc5)c4=O)cc3)c2cc1OC [Example 19, 1-(2-Benzyloxyethyl)-3-(4-fluoro-phenyl)-2,4-dioxo-1,2,3,4-tetrahydropyrimidine-5-carboxylic acid [4-(6,7-dimethoxyquinolin-4-yloxy)-phenyl]-amide] | 10 to 100 nM
CCCCCn1cc(C(=O)Nc2ccc(Oc3ccnc4cc(OC)c(OC)cc34)c(F)c2)c(=O)n(-c2ccc(F)cc2)c1=O [Example 36, 3-(4-Fluorophenyl)-2,4-dioxo-1-pentyl-1,2,3,4-tetrahydropyrimidine-5-carboxylic acid [4-(6,7-dimethoxyquinolin-4-yloxy)-3-fluorophenyl]-amide] | 10 to 100 nM
COc1cc2c(Oc3ccc(NC(=O)c4cn(C(C)C)c(=O)n(-c5ccc(F)cc5)c4=O)cc3F)ccnc2cc1OCc1ccccc1 [Example 41, 3-(4-Fluorophenyl)-1-isopropyl-2,4-dioxo-1,2,3,4-tetrahydropyrimidine-5-carboxylic acid [4-(7-benzyloxy-6-methoxyquinolin-4-yloxy)-3-fluorophenyl]-amide] | 101 to 1000 nM
CCn1cc(C(=O)Nc2ccc(Oc3ccnc4cc(OCCCN5CCOCC5)c(OC)cc34)c(F)c2)c(=O)n(-c2ccc(F)cc2)c1=O [Example 43, 1-Ethyl-3-(4-fluorophenyl)-2,4-dioxo-1,2,3,4-tetrahydropyrimidine-5-carboxylic acid {3-fluoro-4-[6-methoxy-7-(3-morpholin-4-yl-propoxy)quinolin-4-yloxy]phenyl}-amide] | 10 to 100 nM
CCn1cc(C(=O)Nc2ccc(Oc3ccnc4cc(OCCN5CCOCC5)c(OC)cc34)c(F)c2)c(=O)n(-c2ccc(F)cc2)c1=O [Example 45, 1-Ethyl-3-(4-fluorophenyl)-2,4-dioxo-1,2,3,4-tetrahydropyrimidine-5-carboxylic acid {3-fluoro-4-[6-methoxy-7-(2-morpholin-4-yl-ethoxy)-quinolin-4-yloxy]phenyl}-amide] | 10 to 100 nM
COc1cc2c(Oc3ccc(NC(=O)c4cn(C(C)C)c(=O)n(-c5ccc(F)cc5)c4=O)cc3F)ccnc2cc1OCCCN1CCOCC1 [Example 47, 3-(4-Fluorophenyl)-1-isopropyl-2,4-dioxo-1,2,3,4-tetrahydropyrimidine-5-carboxylic acid {3-fluoro-4-[6-methoxy-7-(3-morpholin-4-yl-propoxy)-quinolin-4-yloxy]phenyl}-amide] | 10 to 100 nM
CCn1cc(C(=O)N(C)c2ccc(Oc3ccnc4cc(OC)c(OC)cc34)c(F)c2)c(=O)n(-c2ccc(F)cc2)c1=O [Example 48, 1-Ethyl-3-(4-fluorophenyl)-2,4-dioxo-1,2,3,4-tetrahydropyrimidine-5-carboxylic acid [4-(6,7-dimethoxyquinolin-4-yloxy)-3-fluoro-phenyl]-methyl-amide] | 101 to 1000 nM
COc1cc2nccc(Oc3ccc(NC(=O)c4cn(CCCCO)c(=O)n(-c5ccc(F)cc5)c4=O)cc3F)c2cc1OC [Example 55, 3-(4-Fluorophenyl)-1-(4-hydroxybutyl)-2,4-dioxo-1,2,3,4-tetrahydropyrimidine-5-carboxylic acid [4-(6,7-dimethoxyquinolin-4-yloxy)-3-fluorophenyl]-amide] | 10 to 100 nM
COc1cc2nccc(Oc3ccc(NC(=O)c4cn(C(C)C)c(=O)n(-c5ccc(F)cc5)c4=O)cc3)c2cc1C#N [Example 56, 3-(4-Fluorophenyl)-1-isopropyl-2,4-dioxo-1,2,3,4-tetrahydropyrimidine-5-carboxylic acid [4-(6-cyano-7-methoxy-quinolin-4-yloxy)-phenyl]-amide] | 10 to 100 nM
CCn1cc(C(=O)Nc2ccc(Oc3ccnc4cc(OC)c(OC)cc34)c(C3CC3)c2)c(=O)n(-c2ccc(F)cc2)c1=O [Example 59, 1-Ethyl-3-(4-fluoro-phenyl)-2,4-dioxo-1,2,3,4-tetrahydropyrimidine-5-carboxylic acid [3-cyclopropyl-4-(6,7-dimethoxy-quinolin-4-yloxy)-phenyl]-amide] | 10 to 100 nM
COc1cc2nccc(Oc3ccc(NC(=O)c4cn(C(C)C)c(=O)n(-c5ccc(F)cc5)c4=O)cc3C3CC3)c2cc1OC [Example 60, 3-(4-Fluoro-phenyl)-1-isopropyl-2,4-dioxo-1,2,3,4-tetrahydro-pyrimidine-5-carboxylic acid [3-cyclopropyl-4-(6,7-dimethoxy-quinolin-4-yloxy)-phenyl]-amide] | 101 to 1000 nM

Results, then the compound that gave them:

IC50 | Compound
10 to 100 nM | COc1cc2nccc(Oc3ccc(NC(=O)c4cn(CCOC(C)C)c(=O)n(-c5ccc(F)cc5)c4=O)cc3F)c2cc1OC [Example 12, 3-(4-Fluorophenyl)-1-(2-isopropoxyethyl)-2,4-dioxo-1,2,3,4-tetrahydropyrimidine-5-carboxylic acid [4-(6,7-dimethoxyquinolin-4-yloxy)-3-fluorophenyl]-amide]
101 to 1000 nM | CCn1cc(C(=O)Nc2ccc(Oc3ccnc4cc(OC)c(OC)cc34)c(F)c2)c(=O)n(C2CCCCC2)c1=O [Example 25, 3-Cyclohexyl-1-ethyl-2,4-dioxo-1,2,3,4-tetrahydropyrimidine-5-carboxylic acid [4-(6,7-dimethoxyquinolin-4-yloxy)-3-fluorophenyl]-amide]
10 to 100 nM | COc1cc2nccc(Oc3ccc(NC(=O)c4cn(CC5CC5)c(=O)n(-c5ccc(F)cc5)c4=O)nc3)c2cc1OC [Example 35, 1-Cyclopropylmethyl-3-(4-fluorophenyl)-2,4-dioxo-1,2,3,4-tetrahydropyrimidine-5-carboxylic acid [5-(6,7-dimethoxyquinolin-4-yloxy)pyridin-2-yl]-amide]
101 to 1000 nM | CCOc1cc2nccc(Oc3ccc(NC(=O)c4cn(C(C)C)c(=O)n(-c5ccc(F)cc5)c4=O)cc3F)c2cc1OCC [Example 37, 3-(4-Fluorophenyl)-1-isopropyl-2,4-dioxo-1,2,3,4-tetrahydropyrimidine-5-carboxylic acid [4-(6,7-diethoxyquinolin-4-yloxy)-3-fluoro-phenyl]-amide]
10 to 100 nM | CCn1cc(C(=O)Nc2ccc(Oc3ccnc4cc(OCc5ccccc5)c(OC)cc34)c(F)c2)c(=O)n(-c2ccc(F)cc2)c1=O [Example 40, 1-Ethyl-3-(4-fluorophenyl)-2,4-dioxo-1,2,3,4-tetrahydropyrimidine-5-carboxylic acid [4-(7-benzyloxy-6-methoxyquinolin-4-yloxy)-3-fluorophenyl]-amide]
10 to 100 nM | CCn1cc(C(=O)Nc2ccc(Oc3ccnc4cc(O)c(OC)cc34)c(F)c2)c(=O)n(-c2ccc(F)cc2)c1=O [Example 42, 1-Ethyl-3-(4-fluorophenyl)-2,4-dioxo-1,2,3,4-tetrahydropyrimidine-5-carboxylic acid [3-fluoro-4-(7-hydroxy-6-methoxyquinolin-4-yloxy)phenyl]-amide]
10 to 100 nM | CCn1cc(C(=O)Nc2ccc(Oc3ccnc4cc(OCCOC)c(OC)cc34)c(F)c2)c(=O)n(-c2ccc(F)cc2)c1=O [Example 44, 1-Ethyl-3-(4-fluorophenyl)-2,4-dioxo-1,2,3,4-tetrahydropyrimidine-5-carboxylic acid {3-fluoro-4-[6-methoxy-7-(2-methoxyethoxy)quinolin-4-yloxy]-phenyl}-amide]
< 10 nM | COc1cc2c(Oc3ccc(NC(=O)c4cn(C(C)C)c(=O)n(-c5ccc(F)cc5)c4=O)cc3F)ccnc2cc1O [Example 46, 3-(4-Fluorophenyl)-1-isopropyl-2,4-dioxo-1,2,3,4-tetrahydropyrimidine-5-carboxylic acid [3-fluoro-4-(7-hydroxy-6-methoxyquinolin-4-yloxy)-phenyl]-amide]
10 to 100 nM | COc1cc2nccc(Oc3ccc(NC(=O)c4cn(CC(=O)OC(C)(C)C)c(=O)n(-c5ccc(F)cc5)c4=O)cc3F)c2cc1OC [Example 70, [5-[4-(6,7-Dimethoxy-quinolin-4-yloxy)-3-fluoro-phenylcarbamoyl]-3-(4-fluoro-phenyl)-2,4-dioxo-3,4-dihydro-2H-pyrimidin-1-yl]-acetic acid tert-butyl ester]
101 to 1000 nM | COc1cc2nccc(Oc3ccc(NC(=O)c4cn(CCC5CCCCC5)c(=O)n(-c5ccc(F)cc5)c4=O)cc3F)c2cc1OC [Example 80, 1-(2-Cyclohexyl-ethyl)-3-(4-fluoro-phenyl)-2,4-dioxo-1,2,3,4-tetrahydro-pyrimidine-5-carboxylic acid [4-(6,7-dimethoxy-quinolin-4-yloxy)-3-fluoro-phenyl]-amide]

From patent US9745283B2, “Uracil derivatives as AXL and c-MET kinase inhibitors” (priority 2011, dated 2017)
